Reference: patent US20120115232A1, “METHOD FOR INDUCING DEGRADATION OF PROTEIN IN MAMMALIAN CELL” (OSAKA UNIVERSITY, priority 2009, published 2012)

System: GFP-aid-NLS marker protein
Test: Induction of degradation of labeled protein of interest in transiently transfected COS1 cells, Western blot with GFP antibody
Type: cell-based, monkey
Conditions: 500 μM auxin, 5 hours
Experimental: The EGFP segment of pIRES2-AcGFP1 (Clontech) was removed by treatment with restriction enzymes BstXI and NotI, into which EGFP-IAA17, which was amplified using pMK42 (an EGFP-IAA17-containing plasmid produced by the inventors) as a template and the following primer set, was inserted (the amplified sequence is shown in SEQ ID NO: 13). By this process, EGFP-IAA17 was cloned downstream of IRES. The resulting plasmid was treated with restriction enzymes XhoI and SmaI, and into this site, rice TIR1 tagged with 9Myc at its C terminus was inserted. By this process, the rice TIR1 was inserted between a CMV promoter and IRES, and the resulting plasmid was referred to as pNHK60. The pNHK60 was transferred into the proliferating COS1, CHO, and NIH3T3 cells using Lipofectamine 2000 (Invitrogen) for transient expression. The HEK293 cell shown in FIG. 4 is a HEK293 strain stably expressing pNHK60, which was obtained by transfer of the pNHK60 under the aforementioned conditions and subsequent selection by the addition of G418 to a medium.
In the experiment of transient expression, the cells were cultured in a medium to which 500 μM IAA or NAA was added, and after five hours, the cells were collected, from which extracts were prepared. […] The factors were detected by Western blotting.
The protein thus extracted was separated by SDS-PAGE and then transferred to a nitrocellulose membrane. Using an anti-Myc antibody (mouse monoclonal 9E10) and an anti-GFP antibody (mouse monoclonal 9E1), each kind of protein was detected by Western blotting. […] For migration control, total extracted proteins were detected by Ponceau staining. Since the […] TIR1 gene is tagged with 9Myc, the TIR1 protein can be detected by Western blotting with the aforementioned Myc antibody. Also, EGFP, which is a protein to be degraded in the complex protein, can be detected by Western blotting with the GFP antibody.
In a similar manner to Example 1, the induction of degradation of a labeled protein of interest was compared between the case in which an expression vector having the TIR1 family protein gene from rice linked between a virus promoter and IRES and the chimeric gene expressing a labeled protein of interest linked downstream thereof was transferred (corresponding to A in FIG. 5) and the case in which an expression vector having the chimeric gene expressing a labeled protein of interest linked between a virus promoter and IRES and the TIR1 family protein gene from rice linked downstream thereof was transferred (corresponding to B in FIG. 5). […] After extraction of a protein sample, the expressed GFP-aid-NLS marker protein was detected by Western blotting using the GFP antibody.

[1] = DNA construct A (rice TIR1 between virus promoter and IRES, chimeric gene downstream)
[2] = DNA construct B (chimeric gene between virus promoter and IRES, rice TIR1 downstream)

SMILES: O=C(O)Cc1c[nH]c2ccccc12 [IAA, indole-3-acetic acid]
- depletion of expressed GFP-aid-NLS marker protein [1]: efficiently depleted
- depletion of expressed GFP-aid-NLS marker protein [2]: no outstanding depletion

SMILES: O=C(O)Cc1cccc2ccccc12 [NAA, 1-naphthaleneacetic acid]
- depletion of expressed GFP-aid-NLS marker protein [1]: efficiently depleted
- depletion of expressed GFP-aid-NLS marker protein [2]: no outstanding depletion
